The subject of assay [1] is pERK in RAS-mutant cancer cell lines. Nature of the assay: Phospho-ERK inhibition (AlphaLISA), panel of RAS-mutant cancer cell lines. The following applies: in 10 of the 13 RAS-mutant cell lines tested. The format is cell-based, human. As to the method:
All cancer cell lines (A375, A101D, A2058, RKO, HT29 SK-MEL 30, IPC298, HepG2, HCT-116, Lovo, SWV620, SW480, NCI-H358, NCI-H2122, Calu-6, NCIH2087, NCIH1755, NCIH1666 and Mewo) were obtained from ATCC and cultured in RPMI-1640 medium (Gibco) supplemented with 5% heat inactivated fetal bovine serum (FBS, Wisent) at 37° C. under 5% CO2. Cells were maintained in T175 flasks (Greiner). They were passaged by removing the culture medium, washing once in 10 mL of room temperature Phosphate Buffered Saline (PBS; Wisent) and incubating at 37° C. with 2 mL of 0.05% Trypsin (Thermo-Fisher). […]
After treatment, media was removed and cells were lysed in 50 μL of 1× AlphaScreen Ultra Lysis Buffer (Perkin Elmer). […] After completion of the reactions, the signals were recorded on an EnVision plate reader (Perkin Elmer) using built in AlphaLISA® settings.
The effect of each compound dilution on the pERK signal was expressed in % inhibition and calculated as follows. […]
The ability of each compound to inhibit pERK signal was expressed as an IC50 value obtained by plotting the inhibition values for each data point of a dilution series and fitting the obtained curves using a log(agonist) versus response-variable slope (four parameters) function using GraphPadPrism (V7.0) or Dotmatics Screening Ultra platform. […]
A general note: Alpha assays give light when donor and acceptor beads are brought close together.

The test system of assay [2] is pERK and pMEK in RAS-mutant HCT-116 cells. Nature of the assay: Immunoblot analysis of pERK and pMEK in HCT-116 cells. The assay is classed as cell-based, human. The following applies: 1 h treatment, FIG. 2. As to the method: For immunoblotting analysis, 500,000 HCT-116 cells were plated in 1 mL of complete RPMI-1640 growth medium in 24-well flat-bottomed transparent dishes (Costar). Cells were maintained overnight at 37° C. under 5% CO2 before treatment with compounds' dilution series for one hour.
Cells were then washed once in PBS and lized in 250 μL of Igepal Lysis Buffer (50 mM Tris-HCl pH 7.5, 150 mM NaCl, 1% Igepal-CA630, 1 mM EDTA, 10% Glycerol) supplemented with Leupeptin, Aprotinin, PMSF, phosphatase inhibitor cocktail (Sigma) and Na3VO4 at 4° C. for 15 minutes with gentle rocking. Cell extracts were then cleared by centrifugation at 20,000 g at 4° C. for 10 minutes. Cleared lysates were then transferred on ice in fresh tubes and then boiled in sample loading buffer (100 mM Tris-HCl pH 6.8, 4% SDS, 0.2% bromophenol blue, 20% glycerol, 200 mM p-mercaptoethanol) for 5 minutes prior to fractionation by SDS-PAGE and transfer to nitrocellulose membranes (PALL). […]
(In general: Immunoblotting shows a protein as a band on a membrane.)

Molecules are shown by their SMILES.

Turning to `Cc1ccc2c(Nc3cccc(Cl)c3F)nccc2c1NC(=O)c1csc2c(N)ncnc12` [Belvarafenib, reference compound], the “YMIN of pERK IC50 curves” value in assay [1] was under −30%.
Take `Nc1cccc2c1ncn2-c1ccc2ncnc(Nc3c(F)ccc(NS(=O)(=O)c4cccc(Cl)c4Cl)c3F)c2n1` [Example 99]: the “paradoxical induction of pERK or pMEK signaling (immunoblot)” value in assay [2] is on record as “does not induce paradoxical induction of pERK or pMEK signaling”.

The values are drawn from patent US12139488B2, “Pyrido[3,2-d]pyrimidine compounds uses thereof for treating a proliferative disease” (Universite de Montreal, priority 2021, dated 2024).
